Like-named read-outs stand apart in the source and are kept apart here.
What was measured:
H3 receptors [1] = molecular target: T1, H3 receptors (Cavia porcellus, UniProt Q9JI35); experiment: pA2 at H3 receptor (guinea pig neuronal ileum contraction assay); type: biochemical
Excerpt: pA2=-logEC50, as defined by J. Hey, Eur. J. Pharmacol., (1995), Vol. 294, 329.

H3 receptors [2] = molecular target: T1, H3 receptors; experiment: H3-Receptor Binding Assay (guinea pig brain membranes, [3H]R-α-methylhistamine or [3H]Nα-methylhistamine)
histamine-H3 receptor = settings: cited from earlier work
mice = settings: electrically induced convulsions; cited from earlier work
rat = settings: cited from earlier work
[3] = HCl salt, pA2=-logEC50 as defined by J. Hey, read-out: pA2 (converted)
[4] = HCl salt, pA2=-logEC50 as defined by J. Hey
[5] = HCl salt, guinea pig brain membranes, pH 7.5, 30° C., 30 min

T1 sequence (Q9JI35 whole entry): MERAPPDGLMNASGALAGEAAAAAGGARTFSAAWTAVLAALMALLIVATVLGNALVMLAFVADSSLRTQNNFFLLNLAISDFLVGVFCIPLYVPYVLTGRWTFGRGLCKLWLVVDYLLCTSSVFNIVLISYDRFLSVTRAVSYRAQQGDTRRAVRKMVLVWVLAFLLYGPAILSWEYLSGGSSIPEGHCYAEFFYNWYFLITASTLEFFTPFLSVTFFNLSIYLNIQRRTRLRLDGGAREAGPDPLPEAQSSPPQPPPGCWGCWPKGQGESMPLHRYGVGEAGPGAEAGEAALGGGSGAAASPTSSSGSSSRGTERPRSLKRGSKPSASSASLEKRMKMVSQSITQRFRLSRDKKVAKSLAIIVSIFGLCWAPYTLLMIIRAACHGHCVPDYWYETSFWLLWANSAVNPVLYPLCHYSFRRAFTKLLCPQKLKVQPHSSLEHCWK

SMILES	Kb (H3 receptors [1]; [3])	Ki (H3 receptors [2])	further results
O=C(Nc1ccc(OC(F)(F)F)cc1)C1CCN(CCCCc2c[nH]cn2)CC1 [No. 2]	0.501 nM	2 nM	
CCCNCC1CCN(CCCCc2c[nH]cn2)CC1 [No. 4]		200 nM	
O=C(Nc1ccc(Cl)cc1)C1CCN(CCCCc2c[nH]cn2)CC1 [No. 7]		35 nM	
O=C(Nc1ccc(Cl)c(Cl)c1)C1CCN(CCCCc2c[nH]cn2)CC1 [No. 8]	158 nM	27 nM	
O=C(Nc1cccc(C(F)(F)F)c1)C1CCN(CCCCc2c[nH]cn2)CC1 [No. 10]	0.794 nM	9 nM	
O=C(NCc1ccc(Cl)cc1)C1CCN(CCCc2c[nH]cn2)CC1 [No. 12]	10 nM	29 nM	
O=C(NC1CCN(CCCc2c[nH]cn2)CC1)c1ccc(OC(F)(F)F)cc1 [No. 17]		23 nM	
O=C(NC1CCN(CCCc2c[nH]cn2)CC1)c1ccc(F)cc1 [No. 18]		52 nM	
CC1(C(=O)Nc2ccc(OC(F)(F)F)cc2)CCN(CCCCc2c[nH]cn2)CC1 [No. 19]	39.8 nM	180 nM	
CC1(C(=O)Nc2ccc(OC(F)(F)F)cc2)CCCN(CCCCc2c[nH]cn2)C1 (stereo not shown) [No. 20]		170 nM	
N=C(N)SCCCc1c[nH]cn1 [S-[3-(4(5)-imidazolyl)propyl]isothiourea]			H3 agonist/antagonist activity (histamine-H3 receptor): histamine-H3 antagonist
CCOC(=O)C1CCN(CCCCc2c[nH]cn2)CC1 [compound 1]		22 nM	
CCCNC(=O)C1CCN(CCCCc2c[nH]cn2)CC1 [compound 3]		53 nM	
CCCN(CC1CCN(CCCCc2c[nH]cn2)CC1)S(=O)(=O)c1ccc(Cl)cc1 [compound 5]		44 nM	
CCCN(CC1CCN(CCCCc2c[nH]cn2)CC1)S(=O)(=O)c1ccc(OC(F)(F)F)cc1 [compound 6]	316 nM	24 nM	
O=C(Nc1cccc(Cl)c1)C1CCN(CCCCc2c[nH]cn2)CC1 [compound 9]	1.26 nM	5.5 nM	
O=C(Nc1cccc(OC(F)(F)F)c1)C1CCN(CCCc2c[nH]cn2)CC1 [compound 11]	0.631 nM	1 nM	
O=C(NCc1ccc(OC(F)(F)F)cc1)C1CCN(CCCc2c[nH]cn2)CC1 [compound 13]	31.6 nM	24 nM	
CCCCOc1ccc(NC(=O)C2CCN(CCCc3c[nH]cn3)CC2)cc1 [compound 14]	1 nM	10 nM	

SMILES	Kb (H3 receptors [1]; [3])	Ki (H3 receptors [2])	further results
O=C(Nc1ccc(O)cc1)C1CCN(CCCc2c[nH]cn2)CC1 [compound 15]		100 nM	
O=C(Nc1cccc(O)c1)C1CCN(CCCc2c[nH]cn2)CC1 [compound 16]		700 nM	
FC(F)(F)Oc1ccc(CNC2CCN(CCCCc3c[nH]cn3)CC2)cc1 [compound 21]	7.94 nM	13 nM	
FC(F)(F)Oc1ccc(NCC2CCN(CCCCc3c[nH]cn3)CC2)cc1 [compound 22]		9 nM	
c1nc(CCCCN2CCC(N3CCCCC3)CC2)c[nH]1 [compound 24]	631 nM	100 nM	
OC1(c2ccc(Cl)cc2)CCN(CCCc2c[nH]cn2)CC1 [compound 25]		6 nM	Kb (H3 receptors [1]): 12.6 nM
OC1(c2ccc(Cl)cc2)CCN(CCCCc2c[nH]cn2)CC1 [compound 26]		6 nM	Kb (H3 receptors [1]): 10 nM
OC1(c2ccc(Cl)cc2)CCN(CCCCCc2c[nH]cn2)CC1 [compound 27]		5 nM	Kb (H3 receptors [1]): 7.94 nM
OC1(c2cccc(C(F)(F)F)c2)CCN(CCCCc2c[nH]cn2)CC1 [compound 28]		60 nM	
OCCN1CCC(CCCC2CCN(CCCc3c[nH]cn3)CC2)CC1 [compound 29]			pA2 (H3 receptors [1]; [4]): 7.1; Ki (H3 receptors [2]; [5]): 12 nM
OCCN1CCC(CCCC2CCN(CCCCc3c[nH]cn3)CC2)CC1 [compound 30]			pA2 (H3 receptors [1]; [4]): 7.7; Ki (H3 receptors [2]; [5]): 7 nM
Fc1ccc(C2=CCN(CCCCc3c[nH]cn3)CC2)cc1 [compound 31]		14 nM	Kb (H3 receptors [1]): 12.6 nM
O=C(c1ccc(F)cc1)C1CCN(CCCc2c[nH]cn2)CC1 [compound 32]	20 nM	6 nM	
O=C(c1ccc(F)cc1)C1CCN(CCCCc2c[nH]cn2)CC1 [compound 33]	6.31 nM	3 nM	
Fc1ccc(OCC2CCN(CCCCc3c[nH]cn3)CC2)cc1 [compound 34]	20 nM	10 nM	
CCC(=O)C1(c2ccccc2)CCN(CCCc2c[nH]cn2)CC1 [compound 35]		500 nM	
OC1(Cc2ccccc2)CCN(CCCc2c[nH]cn2)CC1 [compound 36]		660 nM	
S=C(NC1CCCCC1)N1CCC(c2cnc[nH]2)CC1 [thioperamide]			duration of each phase of convulsion (mice): decreased the duration of each phase of convulsion; electroconvulsive threshold (mice): raised the electroconvulsive threshold; reversal learning (rat): improve short-term memory and reversal learning; short-term memory (rat): improve short-term memory

Reference: patent US6133291A, “N-(imidazolylalkyl)substituted cyclic amines as histamine-H3 agonists or antagonists” (Schering Corporation, priority 1998, dated 2000)
